What is called EC50 is the concentration needed to bring the measured effect to its halfway point. A higher EC50 goes with weaker potency.

The subject of the test is Human peripheral blood mononuclear cells (PBMC). As to the kind of experiment: PBMC screening assay, TNF-α in supernatant. The test is classed as cell-based. Conditions: TNF-α in supernatant of human PBMC, 24 hours, ELISA or HTRF. How it is done:
Human peripheral blood mononuclear cells (PBMC) were obtained from BenTek, frozen at 25×10^6 cell/mL in 10% DMSO (Sigma) prepared in fetal bovine serum (Gibco) and stored in liquid nitrogen. For culture PBMC were thawed quickly in a 37° C. water bath and diluted into pre-warmed RPMI 1640 (Lonza) supplemented with 10% fetal bovine serum, 2 mM glutamine, 50 μg/mL penicillin, 50 U/mL streptomycin (all from Gibco) and centrifuged for 5 minutes at 500×g. PBMC were suspended into the growth media described above and cultured at a concentration of 1×10^6 cells per mL at 37° C. in a 5% CO2 incubator.
PBMC were thawed, suspended at a concentration of 1×10^6 cell/mL in growth media and 200 μL was aliquoted into each well of a 96-well plate for a total of 0.2×10^6 cells per well. PBMC were incubated for 16-18 hours at 37° C. in a 5% CO2 humidified incubator. The following day PBMC plates were centrifuged at 500×g for 5 minutes and the growth media was removed. 150 μL of twelve concentrations ranging from 1000 to 0.000238 nM of small molecules prepared in growth media were added to PBMC in duplicate and incubated for 24 hours at 37° C. in a 5% CO2 incubator. Prior to supernatant harvest, cells were spun at 500×g for 5 minutes to remove cell debris. TNF-α activity was assessed in the supernatant by ELISA (eBioscience) or HTRF (CisBio) per the manufacturer's instructions. Optical density at 450 nm and 570 nm (ELISA) or luminescence (HTRF) was analyzed using an Envision (Perkin Elmer) plate reader, as shown in Table 5.
(In an ELISA, binding on a coated surface is turned into a signal by an enzyme label.)

The structures appear in SMILES notation. Where a name gives a salt, the structure may show the parent alone.

Consider `CCCN(CCC)C(=O)C1=Cc2ccc(C(=O)Nc3ccc4c(c3)NCCC4)cc2N=C(N)C1` [Compound 1.1, 2-amino-N^4,N^4-dipropyl-N^8-(1,2,3,4-tetrahydroquinolin-7-yl)-3H-benzo[b]azepine-4,8-dicarboxamide], for which the concentration for a half-maximal effect (EC50) was under 500 nM.

Compound `CCCN(CCC)C(=O)C1=Cc2ccc(C(=O)Nc3cccc(C(C)=O)c3)cc2N=C(N)C1` [Compound 1.2, N^8-(3-acetylphenyl)-2-amino-N^4,N^4-dipropyl-3H-benzo[b]azepine-4,8-dicarboxamide] displayed an EC50 of under 500 nM.

As to `CCCN(CCC)C(=O)C1=Cc2ccc(C(=O)NCc3cccnc3)cc2N=C(N)C1` [Compound 1.3, 2-amino-N^4,N^4-dipropyl-N^8-(pyridin-3-ylmethyl)-3H-benzo[b]azepine-4,8-dicarboxamide HCl salt], the EC50 was under 500 nM.

Consider `CCCN(CCC)C(=O)C1=Cc2ccc(C(=O)Nc3ccc4c(c3)C(=O)CCC4)cc2N=C(N)C1` [Compound 1.4, 2-amino-N^8-(8-oxo-5,6,7,8-tetrahydronaphthalen-2-yl)-N^4,N^4-dipropyl-3H-benzo[b]azepine-4,8-dicarboxamide trifluoroacetate salt], for which the EC50 is under 500 nM.

For the compound `CCCN(CCC)C(=O)C1=Cc2ccc(C(=O)Nc3ccc4c(c3)CCCC4=O)cc2N=C(N)C1` [Compound 1.5, 2-amino-N^8-(5-oxo-5,6,7,8-tetrahydronaphthalen-2-yl)-N^4,N^4-dipropyl-3H-benzo[b]azepine-4,8-dicarboxamide trifluoroacetate salt], the EC50 is under 500 nM.

In turn, `CCCN(CCC)C(=O)C1=Cc2ccc(C(=O)Nc3ccc4c(c3)C(O)CCC4)cc2N=C(N)C1` (stereo not drawn) [Compound 1.7, 2-amino-N^8-(8-hydroxy-5,6,7,8-tetrahydronaphthalen-2-yl)-N4,N4-dipropyl-3H-benzo[b]azepine-4,8-dicarboxamide trifluoroacetate salt] had an EC50 of under 500 nM.

With `CCCN(CCC)C(=O)C1=Cc2ccc(C(=O)Nc3ccc4c(c3)CCCN4)cc2N=C(N)C1` [Compound 1.12, 2-amino-N^4,N^4-dipropyl-N^8-(1,2,3,4-tetrahydroquinolin-6-yl)-3H-benzo[b]azepine-4,8-dicarboxamide trifluoroacetate salt], the EC50 is under 500 nM.

For the compound `CCCN(CCC)C(=O)C1=Cc2ccc(C(=O)Nc3ccc4c(c3)CCNC4)cc2N=C(N)C1` [Compound 1.13, 2-amino-N^4,N^4-dipropyl-N^8-(1,2,3,4-tetrahydroisoquinolin-6-yl)-3H-benzo[b]azepine-4,8-dicarboxamide trifluoroacetate salt], the EC50 is under 500 nM.

In turn, `CCCN(CCC)C(=O)C1=Cc2ccc(C(=O)Nc3ccc4c(c3)CNCC4)cc2N=C(N)C1` [Compound 1.14, 2-amino-N^4,N^4-dipropyl-N^8-(1,2,3,4-tetrahydro-isoquinolin-7-yl)-3H-benzo[b]azepine-4,8-dicarboxamide trifluoroacetate salt] gave an EC50 of under 500 nM.

Regarding `CCCN(CCC)C(=O)C1=Cc2ccc(C(=O)N[C@@H](C)c3ccccc3)cc2N=C(N)C1` [Compound 1.21, (S)-2-amino-N^8-(1-phenylethyl)-N^4,N^4-dipropyl-3H-benzo[b]azepine-4,8-dicarboxamide trifluoroacetate salt], the EC50 was under 500 nM.

Turning to `CCCN(CCC)C(=O)C1=Cc2ccc(C(=O)N[C@H](C)c3ccccc3)cc2N=C(N)C1` [Compound 1.22, (R)-2-amino-N^8-(1-phenylethyl)-N^4,N^4-dipropyl-3H-benzo[b]azepine-4,8-dicarboxamide trifluoroacetate salt], the concentration for a half-maximal effect (EC50) is under 500 nM.

In turn, `CCCN(CCC)C(=O)C1=Cc2ccc(C(=O)NC3CCc4ccccc43)cc2N=C(N)C1` (stereo not drawn) [Compound 1.23, 2-amino-N^8-(2,3-dihydro-1H-inden-1-yl)-N^4,N^4-dipropyl-3H-benzo[b]azepine-4,8-dicarboxamide trifluoroacetate salt] had a half-maximal effective concentration (EC50) of under 500 nM.

The compound `CCCN(CCC)C(=O)C1=Cc2ccc(C(=O)N3CCc4ccccc4C3)cc2N=C(N)C1` [Compound 1.24, 2-amino-N,N-dipropyl-8-(1,2,3,4-tetrahydroisoquinoline-2-carbonyl)-3H-benzo[b]azepine-4-carboxamide trifluoroacetate salt] displayed an EC50 of under 500 nM.

With `CCCN(CCC)C(=O)C1=Cc2ccc(C(=O)Nc3ccc(C(C)=O)cc3)cc2N=C(N)C1` [Compound 1.25, N^8-(4-acetylphenyl)-2-amino-N^4,N^4-dipropyl-3H-benzo[b]azepine-4,8-dicarboxamide trifluoroacetate salt], the EC50 was under 500 nM.

In turn, `CCCN(CCC)C(=O)C1=Cc2ccc(C(=O)NCCNC(=O)OCc3ccccc3)cc2N=C(N)C1` [Compound 1.26, benzyl (2-(2-amino-4-(dipropylcarbamoyl)-3H-benzo[b]azepine-8-carboxamido)ethyl)carbamate trifluoroacetate salt] registered an EC50 of under 500 nM.

`CCCN(CCC)C(=O)C1=Cc2ccc(C(=O)Nc3cccc(C(=O)NCCNC(=O)OCc4ccccc4)c3)cc2N=C(N)C1` [Compound 1.27, benzyl (2-(3-(2-amino-4-(dipropylcarbamoyl)-3H-benzo[b]azepine-8-carboxamido)benzamido)ethyl)carbamate] had an EC50 of under 500 nM.

`CCCN(CCC)C(=O)C1=Cc2ccc(C(=O)N[C@H]3C[C@@H]3c3ccccc3)cc2N=C(N)C1` [Compound 1.28, 2-amino-N^8-((1S,2R)-2-phenylcyclopropyl)-N^4,N^4-dipropyl-3H-benzo[b]azepine-4,8-dicarboxamide trifluoroacetate salt] came in with an EC50 of under 500 nM.

The compound `CCCN(CCC)C(=O)C1=Cc2ccc(C(=O)Nc3ccc4c(c3)CCN(C(=O)OCc3ccccc3)C4)cc2N=C(N)C1` [Compound 1.29, benzyl 6-(2-amino-4-(dipropylcarbamoyl)-3H-benzo[b]azepine-8-carboxamido)-3,4-dihydroisoquinoline-2(1H)-carboxylate] came in with an EC50 of under 500 nM.

With `CCCN(CCC)C(=O)C1=Cc2ccc(C(=O)Nc3cccc(CNC(=O)CCc4ccccc4)c3)cc2N=C(N)C1` [Compound 1.31, 2-amino-N^8-(3-((3-phenylpropanamido)methyl)phenyl)-N^4,N^4-dipropyl-3H-benzo[b]azepine-4,8-dicarboxamide bis TFA salt], the EC50 is under 500 nM.

As for `CCCN(CCC)C(=O)C1=Cc2ccc(C(=O)Nc3cncc(CNC(=O)NCc4ccccc4)c3)cc2N=C(N)C1` [Compound 1.32, 2-amino-N^8-(5-((3-benzylureido)methyl)pyridin-3-yl)-N^4,N^4-dipropyl-3H-benzo[b]azepine-4,8-dicarboxamide bis TFA salt], the EC50 is under 500 nM.

Compound `CCCN(CCC)C(=O)C1=Cc2ccc(C(=O)Nc3cncc(CNC(=O)C4CCc5ccccc5N4)c3)cc2N=C(N)C1` (stereo not drawn) [Compound 1.33, 2-amino-N^4,N^4-dipropyl-N^8-(5-((1,2,3,4-tetrahydroquinoline-2-carboxamido)methyl)pyridin-yl)-3H-benzo[b]azepine-4,8-dicarboxamide] gave an EC50 of under 500 nM.

`CCCN(CCC)C(=O)C1=Cc2ccc(C(=O)Nc3cncc(CNC(=O)C4Cc5ccccc5CN4)c3)cc2N=C(N)C1` (stereo not drawn) [Compound 1.34, 2-amino-N^4,N^4-dipropyl-N^8-(5-((1,2,3,4-tetrahyroisoquinoline-3-carboxamido)-methyl)pyridin-3-yl)-3H-benzo[b]azepine-4,8-dicarboxamide] had an EC50 of under 500 nM.

`CCCN(CCC)C(=O)C1=Cc2ccc(C(=O)Nc3cncc(CNC(=O)[C@@H](N)Cc4ccccc4)c3)cc2N=C(N)C1` [Compound 1.35, (S)-2-amino-N^8-(5-((2-amino-3-phenylpropanamido)methyl)pyridin-3-yl)-N^4,N^4-dipropyl-3H-benzo[b]azepine-4,8-dicarboxamide] yielded an EC50 of under 500 nM.

With `CCCN(CCC)C(=O)C1=Cc2ccc(C(=O)Nc3cncc(CNC(=O)[C@H](N)Cc4ccccc4)c3)cc2N=C(N)C1` [Compound 1.36, (R)-2-amino-N^8-(5-((2-amino-3-phenyl-propanamido)-methyl)pyridine-3-yl)-N^4,N^4-dipropyl-3H-benzo[b]azepine-4,8-dicarboxamide], the concentration for a half-maximal effect (EC50) is under 500 nM.

`CCCN(CCC)C(=O)C1=Cc2ccc(C(=O)Nc3cncc(CNC(=O)Oc4ccccc4)c3)cc2N=C(N)C1` [Compound 1.37, Phenyl ((5-(2-amino-4-(dipropylcarbamoyl)-3H-benzo[b]azepine-8-carboxamido)pyridin-3-yl)methyl)carbamate] yielded an EC50 of under 500 nM.

Take `CCCN(CCC)C(=O)C1=Cc2ccc(C(=O)Nc3cncc(CNC(=O)CC(N)c4ccccc4)c3)cc2N=C(N)C1` (stereo not drawn) [Compound 1.38, 2-amino-N^8-(5-((3-amino-3-phenyl-propanamido)methyl)-pyridin-3-yl)-N^4,N^4-dipropyl-3H-benzo[b]azepine-4,8-dicarboxamide]: the EC50 was under 500 nM.

`CCCN(CCC)C(=O)C1=Cc2ccc(C(=O)Nc3cnc4c(c3)C(N)CCC4)cc2N=C(N)C1` (stereo not drawn) [Compound 1.39, 2-amino-N^8-(5-amino-5,6,7,8-tetrahydro-quinolin-3-yl)-N^4,N^4-dipropyl-3H-benzo-[b]azepine-4,8-dicarbox-amide] returned an EC50 of under 500 nM.

The values are drawn from patent US10428045B2, “Benzazepine compounds, conjugates, and uses thereof” (Silverback Therapeutics, Inc., priority 2017, dated 2019).
